In brackets after ≈: the same amount, converted by molar mass. Read-outs that look alike come from different tables or passages of the source.
Columns and labels:
[1] = test system: Propionibacterium acnes standard strain (ATCC 11827); assay: Minimum growth inhibitory concentration (MIC), GAM agar medium pH 7.3±0.1 (Test Example 1); format: cell-based
Experimental: The growth inhibitory effects of tetrahydroabietic acid salts against Acne bacterium, which is a Gram-positive anaerobic bacterium were evaluated as follows.
Using a GAM agar medium produced by Nissui K. K. as the medium, after an adjustment of the pH of the medium to 7.3±0.1, a minimum growth inhibitory concentration (MIC) of sodium tetrahydroabietate and sodium salt of hydrogenated rosin, needed for a Propionibacterium acnes standard strain (ATCC 11827) was measured and evaluated.
As a Control, MIC's of substances generally known to have an antibacterial action (isopropylmethylphenol, berberine chloride, thioxolone, abietic acid) were also measured.

[2] = test system: Propionibacterium avidum, ATCC 25577; assay: Growth inhibitory band around filter paper disc (Test Example 2); format: cell-based; details: 0.05 ml of 10% acetone solution on 8 mm disc, 37° C., 3 days, anaerobic
Experimental: Using an ABCM medium (Eikensha K. K.) as the antibacterial active medium, the medium was heated in an autoclave at a temperature of 115° C. for 15 minutes. A filter paper disc (8 mm.phi.) impregnated with 0.05 ml of 10% acetone solution of each sample was adhered to an agar plate to which Propionibacterium avidum, ATCC 25577 was previously inoculated and dispersed thereon, and anaerobically cultured at 37° C. for 3 days. The diameter of the transparent band (Propionibacterium avidum growth inhibitory band) formed around the filter paper upon completion of the culturing was measured, and the antibacterial power determined therefrom.

[3] = Cutibacterium acnes, ATCC11827, GAM agar medium, pH 7.3±0.1, read-out: MIC

Row | MIC [1, 3] | SMILES | MIC ([1]; GAM agar medium, pH 7.3±0.1) | Inhibitory band diameter [2] | also measured
1 |  | COc1ccc2cc3[n+](cc2c1OC)CCc1cc2c(cc1-3)OCO2 [Berberline chloride, berberine chloride] |  |  | MIC ([1]; Cutibacterium acnes, ATCC11827, pH 7.3): 100 µg/mL
2 |  | Cc1cc(O)ccc1C(C)C [Isopropylmethylphenol] | 100 ppm |  | 
3 | 20 µg/mL (≈ 66.1 µM) | CC(C)C1=CC2=CC[C@@H]3[C@](C)(CCC[C@@]3(C)C(=O)O)[C@H]2CC1 [Abietic acid] |  |  | zone of inhibition at 10 % ([2]; Cutibacterium avidum, ATCC25577, 72 h, read-out: Inhibitory band diameter): 15 mm
4 | 50 µg/mL (≈ 297 µM) | O=c1oc2cc(O)ccc2s1 [Thioxolone] |  |  | 
5 |  | CC(C)[C@@H]1CC[C@H]2[C@@H](CC[C@@H]3[C@]2(C)CCC[C@@]3(C)C(=O)O)C1 [Tetrahydroabietic acid] | 3 ppm | 18 mm | 
6 |  | CC(C)C1CC[C@H]2C(CC[C@@H]3[C@]2(C)CCC[C@@]3(C)C(=O)[O-])C1.[Na+] (stereo partly shown) [Sodium tetrahydroabietate] | 5 ppm | 17 mm | Antibacterial power compared with other antibacterial substances ([1]; Table 1, in words): far stronger antibacterial power than other antibacterial substances

— US5292531A, “Dermatologial external agent” (Shiseido Company Ltd., priority 1990, dated 1994)
